Key:
Format in all cases: in vivo
C57BL/KsBom-db/db mice [1] = experiment: Serum lipid profile of treated db/db mice (antidyslipidemic activity); conditions: 25 mg/kg
Description: (§1) C57BL/KsBom-db/db mice (12-18 weeks old), weighing around 35+g bred in the animal house of CDRI, Lucknow, were used in the present experiments. The mice were housed in groups of 3 to 5 (same sex) in a room controlled for temperature (23±2.0 ° C.) and 12/12 hours light/dark cycle (lights on at 6.00 am). Body weight of each animal was measured daily from day 1 to day 10 of the experiment. All animals had free access to fresh water and normal pellet diet except on the day of the postprandial protocol (day 6) and during the overnight fast before the OGTT on day 10. The animals always had access to water during experimental periods. Blood glucose was checked every morning up till day 10. On day 10 an oral glucose tolerance test (OGTT) was performed after an overnight fasting. Blood glucose was measured at −30.0 min and test compounds were administered. The blood glucose was again measured at 0 min just post treatment and at this juncture glucose solution was given at a dose of 3 gm/kg to all the groups including the vehicle treated group. The blood glucose levels were checked at 30 min, 60 min, 90 min and 120 min post glucose administration. The data was analyzed for its significance on Prism software.

C57BL/KsBom-db/db mice [2] = experiment: as above; conditions: db/db mice, 25 mg/kg
C57BL/KsBom-db/db mice [3] = experiment: Oral glucose tolerance test (OGTT) on day 10 in db/db mice; conditions: 25 mg/kg
Description: as §1

C57BL/KsBom-db/db mice [4] = experiment: Blood glucose profile of db/db mice during daily treatment (antihyperglycemic activity)
Description: as §1

SMILES: CC(C)NC[C@H](O)COc1ccc2c(=O)cc(-c3cc(O)cc(O)c3)oc2c1 [S-002-857 (S), (S)-(+)-7-(2-Hydroxy-3-isopropylaminopropoxy)-3′,5′-dihydroxyflavone]
- Serum lipid profile: Cholesterol (C57BL/KsBom-db/db mice [1]): 152 ± 7.00 mg/dL
- Serum lipid profile: HDL-Chol (C57BL/KsBom-db/db mice [1]): 65.0 ± 6.03 mg/dL
- Serum lipid profile: Triglycerides (C57BL/KsBom-db/db mice [1]): 124 ± 3.51 mg/dL
- serum cholesterol, triglycerides (lipid profile) compared to sham treated (in words) (C57BL/KsBom-db/db mice [1]): not statistically significant
- Cholesterol % change compared to control (C57BL/KsBom-db/db mice [1]; vs sham): −11.2%
- HDL-Chol % change compared to control (C57BL/KsBom-db/db mice [1]; vs sham): +17.3%
- Triglycerides % change compared to control (C57BL/KsBom-db/db mice [1]; vs sham): −6.54%
- elevation in HDL-cholesterol level than control (C57BL/KsBom-db/db mice [2]): 17.3%
- Blood glucose profile, 0 min post glucose load (C57BL/KsBom-db/db mice [3]; OGTT day 10, 0 min): 13.8 ± 2.18 mM
- Blood glucose % change compared to control, 0 min post glucose load (C57BL/KsBom-db/db mice [3]; OGTT day 10, 0 min, vs sham): −21.1%
- Blood glucose profile, 30 min post glucose load (C57BL/KsBom-db/db mice [3]; OGTT day 10, 30 min): 25.3 ± 0.58 mM
- Blood glucose % change compared to control, 30 min post glucose load (C57BL/KsBom-db/db mice [3]; OGTT day 10, 30 min, vs sham): −23.7%
- Blood glucose profile, 60 min post glucose load (C57BL/KsBom-db/db mice [3]; OGTT day 10, 60 min): 19.8 ± 1.20 mM
- Blood glucose % change compared to control, 60 min post glucose load (C57BL/KsBom-db/db mice [3]; OGTT day 10, 60 min, vs sham): −26.9%
- Blood glucose profile, 90 min post glucose load (C57BL/KsBom-db/db mice [3]; OGTT day 10, 90 min): 15.2 ± 0.48 mM
- Blood glucose % change compared to control, 90 min post glucose load (C57BL/KsBom-db/db mice [3]; OGTT day 10, 90 min, vs sham): −31.5%
- Blood glucose profile, 120 min post glucose load (C57BL/KsBom-db/db mice [3]; OGTT day 10, 120 min): 11.6 ± 0.58 mM
- Blood glucose % change compared to control, 120 min post glucose load (C57BL/KsBom-db/db mice [3]; OGTT day 10, 120 min, vs sham): −37.6%
- Blood glucose profile, −30 min post glucose load (C57BL/KsBom-db/db mice [3]; OGTT day 10, −30 min): 8.76 ± 1.90 mM
- Blood glucose % change compared to control, −30 min post glucose load (C57BL/KsBom-db/db mice [3]; OGTT day 10, −30 min, vs sham): −32.2%
- effect of 10 days treatment on glucose tolerance (overall improvement in OGTT) (C57BL/KsBom-db/db mice [3]; vs sham): 27%
- average blood glucose lowering (C57BL/KsBom-db/db mice [4]; 25.0 mg/kg): around 20%
- Blood glucose, day 1 post treatment (C57BL/KsBom-db/db mice [4]; 25 mg/kg, day 1): 12.7 ± 2.61 mM
- Blood glucose % change compared to control, day 1 (C57BL/KsBom-db/db mice [4]; 25 mg/kg, day 1, vs sham): −1.60%
- Blood glucose, day 2 post treatment (C57BL/KsBom-db/db mice [4]; 25 mg/kg, day 2): 12.3 ± 2.40 mM
- Blood glucose % change compared to control, day 2 (C57BL/KsBom-db/db mice [4]; 25 mg/kg, day 2, vs sham): −0.80%
- Blood glucose, day 3 post treatment (C57BL/KsBom-db/db mice [4]; 25 mg/kg, day 3): 11.5 ± 1.80 mM
- Blood glucose % change compared to control, day 3 (C57BL/KsBom-db/db mice [4]; 25 mg/kg, day 3, vs sham): −8.13%
- Blood glucose, day 4 post treatment (C57BL/KsBom-db/db mice [4]; 25 mg/kg, day 4): 11.3 ± 2.54 mM
- Blood glucose % change compared to control, day 4 (C57BL/KsBom-db/db mice [4]; 25 mg/kg, day 4, vs sham): −12.7%
- Blood glucose, day 5 post treatment (C57BL/KsBom-db/db mice [4]; 25 mg/kg, day 5): 10.1 ± 2.08 mM
- Blood glucose % change compared to control, day 5 (C57BL/KsBom-db/db mice [4]; 25 mg/kg, day 5, vs sham): −25.3%
- Blood glucose, day 6 post treatment (C57BL/KsBom-db/db mice [4]; 25 mg/kg, day 6): 9.19 ± 2.25 mM
- Blood glucose % change compared to control, day 6 (C57BL/KsBom-db/db mice [4]; 25 mg/kg, day 6, vs sham): −29.1%
- Blood glucose, day 7 post treatment (C57BL/KsBom-db/db mice [4]; 25 mg/kg, day 7): 9.41 ± 1.37 mM
- lowering in blood glucose, day 7 (C57BL/KsBom-db/db mice [4]; 25.0 mg/kg, day 7, statistically significant): around 37.4%
- Blood glucose % change compared to control, day 7 (C57BL/KsBom-db/db mice [4]; 25 mg/kg, day 7, vs sham): −37.4%
- Blood glucose, day 8 post treatment (C57BL/KsBom-db/db mice [4]; 25 mg/kg, day 8): 9.28 ± 1.02 mM
- lowering in blood glucose, day 8 (C57BL/KsBom-db/db mice [4]; 25.0 mg/kg, day 8, statistically significant): ~36.8%
- Blood glucose % change compared to control, day 8 (C57BL/KsBom-db/db mice [4]; 25 mg/kg, day 8, vs sham): −36.8%
- Blood glucose, day 9 post treatment (C57BL/KsBom-db/db mice [4]; 25 mg/kg, day 9): 7.56 ± 2.13 mM
- lowering in blood glucose, day 9 (C57BL/KsBom-db/db mice [4]; 25.0 mg/kg, day 9, statistically significant): ~43.3%
- Blood glucose % change compared to control, day 9 (C57BL/KsBom-db/db mice [4]; 25 mg/kg, day 9, vs sham): −43.3%
